From patent US20250085273A1, “NOVEL RAPID DRUG DISCOVERY FOR SEPSIS AND AGENTS FOR USE AS SEPSIS THERAPY” (priority 2023, published 2025)
Read-outs that look alike come from different tables or passages of the source.

Legend:
[1] = system: larval zebrafish exposed to Pseudomonas aeruginosa 60 μg/mL lipopolysaccharide (LPS); test: Zebrafish endotoxicity/sepsis model drug screening, statements without larval stage; assay type: in vivo, Danio rerio
From the text: To identify potential sepsis drug candidates, an optimized larval zebrafish model of endotoxicity/sepsis was used to screen commercial libraries of U.S. Food and Drug Administration (FDA)-approved drugs and other active pharmaceutical ingredients (API) known to affect pathways implicated in the initiation and progression of sepsis in humans (i.e., inflammation, mitochondrial dysfunction, coagulation, and apoptosis). In this model, endotoxicity was induced in 3- and 5-day post fertilization larval zebrafish (characterized by mortality and tail fin edema (vascular leakage)) by immersion exposure to Pseudomonas aeruginosa 60 μg/mL lipopolysaccharide (LPS) for 24 hours, then screened for the rescue potential of 644 selected drugs simultaneously with LPS at 10 μM. After LPS exposure, a neurobehavioral assay (light-dark test) was performed to further evaluate rescue from endotoxicity and to determine possible off-target drug side effects.

[2] = system: zebrafish exposed to P. aeruginosa LPS; test: Model compound testing in the optimized zebrafish sepsis model (varying LPS dose ranges); assay type: in vivo, Danio rerio
Procedure: Three sources of LPS were evaluated: E. coli 0111:B4, P. aeruginosa Sigma L9143, and K. pneumoniae. E. coli 0111:B4 LPS was selected as the reference LPS used by Philip et al. (2017). P. aeruginosa LPS is commonly associated with infections in hospitals, accounting for an estimated 32,600 cases and resulting in an estimated 2,700 deaths in 2017 (CDC Report 2019). P. aeruginosa infections are also a common cause of sepsis in both patients with severe burns and immunocompromised patients. K. pneumoniae LPS has military relevance related to battlefield injury infections (Kiley et al., 2021). Initial range finding LC50 tests with larval zebrafish were conducted for each LPS strain at both 3-dpf and 5-dpf. […] (E. coli 0111:B4 was also tested at higher concentrations, 400, 800, and 1000 μg/mL due a lack of toxicity within the initial dose range.) Well plates were then covered with parafilm and placed into an incubator at 28.5° C. for 24 hours. After 6 and 24 hours, the plates were removed and scored for mortality, tail edema, and ROS production. The tail edema endpoint evaluates vascular leakage from caudal fin in response to LPS exposure (FIG. 2). ROS production was determined as described by Philip et al. (2017) by adding 2,7-dichloroflurescein diacetate (100 μM) to the wells containing the zebrafish larvae and incubating them in a 100% dark photoperiod incubator at 28.5° C. for one hour. Florescent images of the incubated zebrafish were then captured with a Keyence BZ-X710 fluorescent microscope using 10× objective with a GFP filter and fixed 1/15 second exposure for all imaging. […] Results from the LPS toxicity testing and endpoint screening were used to develop the optimized testing procedure through evaluation in selected model compounds, as described in the next section and in the results.
The optimized zebrafish sepsis model was evaluated against compounds previously shown to have efficacy in previous zebrafish sepsis models: fasudil, hydrocortisone, dexamethasone, and fisetin. Fasudil, an anti-vascular leakage compound (inhibitor of the RhoA/Rho-kinase pathway) was shown by Philip et al. (2017) to rescue zebrafish from LPS-induced mortality, ROS production, and tail fin edema. Fasudil also rescued LPS-induced vascular leakage in murine models of experimental sepsis (Li et al., 2010) and reduced acute lung injury in septic rats through inhibition of the Rho/ROCK signaling pathway (Wang et al., 2018). […] Endpoints evaluated with model compounds included mortality, tail edema, and ROS at 6- and 24-hours post exposure to varying dose ranges of LPS.
(§1) LC50s for the LPS tests were determined using the Trimmed Spearmen-Karber method (Hamilton et al., 1977). The tail edema and mortality data from the initial and confirmatory drug testing was analyzed using GraphPad Prism 9 using Fisher's Exact Test. Each drug treatment group was compared pairwise with the on-board positive control group on each test plate. Statistical significance was determined with values of p≤0.05. Neurological behavioral testing data was analyzed by Ethovision software that produced an activity analysis profile per frame for each well of the 96 well plates. Any dead embryos were removed from the data set, and the remaining data set was imported into Excel. […] The behavioral data was then statistically analyzed by drug per phase using a 2 tailed t-test to determine statistical significance p≤0.01.

[3] = biological target: hERG potassium ion channel current (IhERG) (Homo sapiens, UniProt Q12809); conditions: cited from earlier work
hERG potassium ion channel current (IhERG), sequence (Q12809 whole entry): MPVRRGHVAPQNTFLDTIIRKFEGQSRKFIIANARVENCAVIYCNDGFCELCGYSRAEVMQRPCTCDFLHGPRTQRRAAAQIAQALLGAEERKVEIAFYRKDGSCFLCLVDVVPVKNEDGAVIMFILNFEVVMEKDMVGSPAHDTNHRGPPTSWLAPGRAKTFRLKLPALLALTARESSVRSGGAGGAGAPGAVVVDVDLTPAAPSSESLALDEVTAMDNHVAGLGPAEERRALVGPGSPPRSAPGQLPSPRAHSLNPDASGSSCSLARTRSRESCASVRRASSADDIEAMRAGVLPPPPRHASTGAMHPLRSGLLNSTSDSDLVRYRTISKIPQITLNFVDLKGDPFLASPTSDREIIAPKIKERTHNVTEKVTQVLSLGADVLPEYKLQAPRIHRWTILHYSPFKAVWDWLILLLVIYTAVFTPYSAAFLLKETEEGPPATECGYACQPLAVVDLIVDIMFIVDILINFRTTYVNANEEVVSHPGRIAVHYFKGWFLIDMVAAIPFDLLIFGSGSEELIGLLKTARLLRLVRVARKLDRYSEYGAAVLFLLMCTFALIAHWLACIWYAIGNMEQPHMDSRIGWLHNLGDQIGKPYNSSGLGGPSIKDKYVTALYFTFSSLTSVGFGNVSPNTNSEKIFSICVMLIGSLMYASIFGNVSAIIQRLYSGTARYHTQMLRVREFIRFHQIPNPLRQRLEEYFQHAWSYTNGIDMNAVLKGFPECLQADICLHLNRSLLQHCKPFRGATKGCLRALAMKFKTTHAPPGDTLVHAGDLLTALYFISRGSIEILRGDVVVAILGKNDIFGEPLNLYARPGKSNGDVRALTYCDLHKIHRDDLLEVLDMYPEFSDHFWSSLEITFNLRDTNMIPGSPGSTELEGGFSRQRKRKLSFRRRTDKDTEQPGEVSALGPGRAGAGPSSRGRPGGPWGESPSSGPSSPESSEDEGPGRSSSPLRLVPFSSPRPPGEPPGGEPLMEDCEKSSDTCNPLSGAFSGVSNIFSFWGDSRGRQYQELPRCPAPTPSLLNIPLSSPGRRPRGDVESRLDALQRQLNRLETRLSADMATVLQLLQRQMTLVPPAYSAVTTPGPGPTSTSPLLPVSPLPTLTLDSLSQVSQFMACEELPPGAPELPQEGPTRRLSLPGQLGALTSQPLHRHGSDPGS

[4] = system: 5-dpf zebrafish challenged with K. Pneumoniae LPS (45 μg/mL); test: Challenge with K. Pneumoniae LPS (45 μg/mL), 5-dpf zebrafish; assay type: in vivo, Danio rerio
Procedure: These tests followed the same methods described in the 5-dpf zebrafish confirmatory testing, but K. Pneumoniae LPS (45 μg/mL final in well concentration) was used instead of P. aeruginosa LPS.

[5] = system: 3-dpf Zebrafish Embryos Challenged with LPS (P. aeruginosa 60 μg/mL); assay type: in vivo, Danio rerio; conditions: P. aeruginosa LPS 60 μg/mL, compound 10 μM; for Percent Rescue (Mort + Tail Edema): 3-dpf embryos, n=16; for Percent Rescue (Mort + Tail Edema) / rescue of tail edema and mortality (sepsis rescue rate) at 3-dpf: 24 hours; for 3 dpf Embryos Percent Rescue (Mort + Tail Edema): initial 3-dpf screen shown for reference
In short: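 3-dpf PTU-treated AB zebrafish embryos exposed to 60 μg/mL P. aeruginosa LPS plus 10 μM compound (final) at 28.5 °C, n=16 per compound. Tail edema and mortality scored at 6 and 24 h post exposure; rescue judged against LPS-only controls at 24 h.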

[6] = system: zebrafish (4 dpf pre-treated, LPS exposure at 5-dpf) challenged with P. aeruginosa LPS 60 μg/mL; assay type: in vivo, Danio rerio; conditions: for Pre-Treatment Rescue (n = 16): 24-hour drug pre-treatment; for Pre-Treatment Rescue (n = 16) / No Pre-Treatment Rescue (n = 16): P. aeruginosa LPS 60 μg/mL; for No Pre-Treatment Rescue (n = 16): no 24-hour drug pre-treatment; for 24 hour Tail Edema, No-Drug Pretreatment / 24 Hour Mortality and Tail Edema, Drug Pretreatment / 24 Hour Mortality, Drug Pretreatment / 24 hour Tail Edema, Drug Pretreatment / 24 Hour Mortality and Tail Edema, No-Drug Pretreatment / 24 Hour Mortality, No Drug Pretreatment: number of n = 16 fish; for 24 hour Tail Edema, No-Drug Pretreatment: 10 μM drug with LPS 60 μg/mL; for 24 hour Tail Edema, No-Drug Pretreatment / 24 Hour Mortality and Tail Edema, No-Drug Pretreatment / 24 Hour Mortality, No Drug Pretreatment: no 24-hour pre-treatment; for 24 Hour Mortality and Tail Edema, Drug Pretreatment / 24 Hour Mortality, Drug Pretreatment: 24-hour 10 μM drug pre-treatment; for 24 hour Tail Edema, Drug Pretreatment: 24-hour 10 μM drug pre-treatment before LPS 60 μg/mL
In short: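 PTU-treated 4 dpf zebrafish embryos received a 24-hour drug pre-treatment at 28.5 °C, alongside an untreated parallel group, before challenge at 5 dpf with P. aeruginosa LPS at 60 μg/mL. Tail edema and mortality were scored at 6 and 24 h post exposure, followed by a neurobehavioral test.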

[7] = system: 5-dpf zebrafish larvae challenged with P. aeruginosa LPS 60 μg/mL; assay type: in vivo, Danio rerio; conditions: compound 10 μM; for 5 dpf Embryos Percent Rescue (Mort + Tail Edema): 5-dpf larvae
human recombinant 5-HT2C = biological target: T1, human recombinant 5-HT2C (Homo sapiens, UniProt P28335); conditions: cited from earlier work
T1 sequence (P28335 33-458): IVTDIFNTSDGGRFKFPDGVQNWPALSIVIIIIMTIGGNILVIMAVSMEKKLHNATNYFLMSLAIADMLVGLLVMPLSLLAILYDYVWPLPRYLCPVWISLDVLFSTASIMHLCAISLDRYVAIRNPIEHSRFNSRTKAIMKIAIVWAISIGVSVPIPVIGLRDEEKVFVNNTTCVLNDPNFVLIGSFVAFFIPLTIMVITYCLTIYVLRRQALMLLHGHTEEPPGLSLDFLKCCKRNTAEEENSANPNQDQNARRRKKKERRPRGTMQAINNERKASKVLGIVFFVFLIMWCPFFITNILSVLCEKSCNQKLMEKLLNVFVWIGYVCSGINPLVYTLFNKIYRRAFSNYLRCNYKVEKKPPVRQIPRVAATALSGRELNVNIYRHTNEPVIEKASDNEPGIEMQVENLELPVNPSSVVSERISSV

[8] = system: larval zebrafish locomotor behavior; assay type: in vivo
From the text: This assay is a modified version of the larval zebrafish light dark transition assay with an added UV light (wavelength=295 nm) phase to capture any compound specific neurological effects to UV light. (Basnet et al., 2019, Kokel et al., 2013, Peng et al., 2016). The light period assesses deviations from normal locomotor behavior while the rapid transition to dark provides a measure of stress response by identifying any deviations from the normal heightened locomotor activity caused by the transition to dark. The neurobehavioral assay used a custom trial control script created by Noldus Ethovision XT 15, and it was executed in a Noldus DanioVision system. Zebrafish larvae in microplates were allowed to habituate in the DanioVision system for 5 minutes under white light conditions prior to the start of the test. The neurobehavioral assay consisted of three phases: a 3-minute light phase (white light), a 3-minute dark phase (no light) and a 5 second UV phase (UV light only). The Danio Vision system captured larval zebrafish movement throughout this assay at 30 frames per second.
as §1, with “Excel. The offset function in Excel was used to average the percentage of pixel change per 0.1 s for each plate.” for “Excel.”

5-HT2B = 5-HT2B (Homo sapiens, UniProt P41595); conditions: cited from earlier work
5-HT2B, sequence (P41595 whole entry): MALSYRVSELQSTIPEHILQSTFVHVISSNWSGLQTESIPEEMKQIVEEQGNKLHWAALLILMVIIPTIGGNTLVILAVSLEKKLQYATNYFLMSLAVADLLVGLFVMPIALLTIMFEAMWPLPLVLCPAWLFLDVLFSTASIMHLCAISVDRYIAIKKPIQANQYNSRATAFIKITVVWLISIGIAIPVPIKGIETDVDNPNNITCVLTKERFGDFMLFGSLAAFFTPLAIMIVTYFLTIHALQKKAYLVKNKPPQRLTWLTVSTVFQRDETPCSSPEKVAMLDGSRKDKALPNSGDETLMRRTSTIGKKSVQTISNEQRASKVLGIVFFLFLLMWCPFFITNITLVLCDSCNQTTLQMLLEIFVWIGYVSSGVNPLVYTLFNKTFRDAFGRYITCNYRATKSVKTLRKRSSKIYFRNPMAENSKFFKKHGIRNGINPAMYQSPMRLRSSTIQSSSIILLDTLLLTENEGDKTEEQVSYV

human recombinant 5-HT2A = human recombinant 5-HT2A (Homo sapiens, UniProt P28223); conditions: cited from earlier work
human recombinant 5-HT2A, sequence (P28223 whole entry): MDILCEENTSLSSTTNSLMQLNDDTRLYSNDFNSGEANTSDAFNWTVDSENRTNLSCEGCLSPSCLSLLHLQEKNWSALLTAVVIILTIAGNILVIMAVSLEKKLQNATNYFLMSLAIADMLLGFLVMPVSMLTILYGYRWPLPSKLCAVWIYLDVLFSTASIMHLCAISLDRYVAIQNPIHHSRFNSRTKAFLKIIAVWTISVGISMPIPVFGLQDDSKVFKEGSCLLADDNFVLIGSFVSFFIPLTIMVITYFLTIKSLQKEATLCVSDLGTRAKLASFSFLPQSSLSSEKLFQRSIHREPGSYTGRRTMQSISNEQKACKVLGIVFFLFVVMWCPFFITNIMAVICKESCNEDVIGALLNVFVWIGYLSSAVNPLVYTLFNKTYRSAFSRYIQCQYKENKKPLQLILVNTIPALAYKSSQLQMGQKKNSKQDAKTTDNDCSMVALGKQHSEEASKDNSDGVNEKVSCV

D2 receptor = D2 receptor (Homo sapiens, UniProt P14416); conditions: read-out: IC50 for D2 receptor; cited from earlier work
D2 receptor, sequence (P14416 whole entry): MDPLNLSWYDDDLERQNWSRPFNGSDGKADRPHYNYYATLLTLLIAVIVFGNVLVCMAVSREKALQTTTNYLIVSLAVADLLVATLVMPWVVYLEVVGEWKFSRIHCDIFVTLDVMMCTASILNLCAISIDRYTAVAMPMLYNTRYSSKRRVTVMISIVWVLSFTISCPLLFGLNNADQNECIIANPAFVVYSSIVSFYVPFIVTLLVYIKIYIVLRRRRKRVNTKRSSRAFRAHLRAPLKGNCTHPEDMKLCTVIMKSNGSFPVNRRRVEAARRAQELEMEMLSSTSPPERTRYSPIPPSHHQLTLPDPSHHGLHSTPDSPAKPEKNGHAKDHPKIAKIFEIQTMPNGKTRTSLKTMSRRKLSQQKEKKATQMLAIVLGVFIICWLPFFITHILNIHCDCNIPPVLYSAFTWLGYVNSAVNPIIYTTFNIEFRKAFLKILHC

Compound	rescue of tail edema and mortality [4] [%]	Percent Rescue (Mort + Tail Edema) [5] [%]	rescue of tail edema and mortality (sepsis rescue rate) at 3-dpf [5] [%]	3 dpf Embryos Percent Rescue (Mort + Tail Edema) [5] [%]	Pre-Treatment Rescue (n = 16) [6] [%]	No Pre-Treatment Rescue (n = 16) [6] [%]	24 hour Tail Edema, No-Drug Pretreatment [6] [fish]	24 Hour Mortality and Tail Edema, Drug Pretreatment [6] [fish]	24 Hour Mortality, Drug Pretreatment [6] [fish]	24 hour Tail Edema, Drug Pretreatment [6] [fish]	24 Hour Mortality and Tail Edema, No-Drug Pretreatment [6] [fish]	24 Hour Mortality, No Drug Pretreatment [6] [fish]	5 dpf Embryos Percent Rescue (Mort + Tail Edema) [7] [%]	rescue of tail edema and mortality (sepsis rescue rate) at 5-dpf [7] [%]	further results
C[C@]12CCC(=O)C=C1CC[C@@H]1[C@@H]2[C@@H](O)C[C@@]2(C)[C@H]1CC[C@]2(O)C(=O)CO [hydrocortisone]															rescue at 6-hour exposure time point ([1]; 6-hour exposure time point): showed rescue early; rescue by 24 hours post exposure ([1]; 24 hours post exposure): failed to show any level of rescue; efficacy (mortality) at 6 hours ([2]; 6 hours post LPS exposure): some efficacy noted; mortality at 24 hours post exposure ([2]; 24 hours post LPS exposure): increased mortality over no treatment
O=C(c1ccc(F)cc1)C1CCN(CCn2c(=O)[nH]c3ccccc3c2=O)CC1 [Compound 88, Ketanserin]	88	100	100	100	100	100	0	0	0	0	0	0	81	81	IC50 [3]: 110 nM; rescue of tail edema and mortality (sepsis rescue rate) at 5-dpf ([7]; listed as ketanserin): 100%
CCCCCNC(=N)N/N=C/c1c[nH]c2ccc(OC)cc12 [Compound 400, Tegaserod (maleate)]	100	100	100	100	100	88	1	0	0	0	2	1	100	100	pKi 5-HT2C (human recombinant 5-HT2C): 7.0; light/dark neurobehavioral testing, difference from negative controls ([8]; after LPS exposure, with and without drug pre-treatment): little to no difference from negative controls; Post Test Behavioral Assay ([8]; after pre-treatment test LPS exposure): Normal; pKi 5-HT2B (5-HT2B): 8.4; pKi 5-HT2A (human recombinant 5-HT2A): 7.5
CN1CCN(CCCN2c3ccccc3Sc3ccc(C(F)(F)F)cc32)CC1 [Trifluoperazine]															IC50 (D2 receptor): 1.2 nM
